Data as given in BindingDB's records for doi:10.1021/jm950922q (University of North Carolina at Chapel Hill, 1996).

The molecules below were run against HIV-RT (HIV reverse transcriptase) (assay: Inhibitory activity against HIV-RT).
With `CC(C)[C@@H]1CC[C@]2(C(=O)O)CC[C@]3(C)[C@H](CC[C@@H]4[C@@]5(C)CC[C@H](OC(=O)CC(C)(C)C(=O)O)C(C)(C)[C@@H]5CC[C@]43C)[C@@H]12` [2,2-Dimethyl-succinic acid 4-((1S,3aS,5aR,5bR,7aR,9S,11aR,11bR,13aR,13bR)-3a-carboxy-1-isopropyl-5a,5b,8,8,11a-pentamethyl-icosahydro-cyclopenta[a]chrysen-9-yl) ester] the IC50 was greater than 171 µM. In the case of `C=C(C)[C@@H]1CC[C@]2(C(=O)O)CC[C@]3(C)[C@H](CC[C@@H]4[C@@]5(C)CC[C@H](OC(=O)C(C)(C)CC(=O)O)C(C)(C)[C@@H]5CC[C@]43C)[C@@H]12` [(1R,3aS,5aR,5bR,7aR,9S,11aR,11bR,13aR,13bR)-9-(3-carboxy-2,2-dimethylpropanoyloxy)-5a,5b,8,8,11a-pentamethyl-1-(prop-1-en-2-yl)icosahydro-1H-cyclopenta[a]chrysene-3a-carboxylic acid], the IC50 is reported as greater than 171 µM. In the case of `C=C(C)[C@@H]1CC[C@]2(C(=O)O)CC[C@]3(C)[C@H](CC[C@@H]4[C@@]5(C)CC[C@H](OC(=O)CC(C)(C)CC(=O)O)C(C)(C)[C@@H]5CC[C@]43C)[C@@H]12` [3,3-Dimethyl-pentanedioic acid mono-((1R,3aS,5aR,5bR,7aR,9S,11aR,11bR,13aR,13bR)-3a-carboxy-1-isopropenyl-5a,5b,8,8,11a-pentamethyl-icosahydro-cyclopenta[a]chrysen-9-yl) ester], the IC50 is reported as greater than 167 µM. Molecule `CC(C)[C@@H]1CC[C@]2(C(=O)O)CC[C@]3(C)[C@H](CC[C@@H]4[C@@]5(C)CC[C@H](O)C(C)(C)[C@@H]5CC[C@]43C)[C@@H]12` [Dihydrobetulinic acid] has an IC50 greater than 218 µM. In the case of `CC(C)[C@@H]1CC[C@]2(C(=O)O)CC[C@]3(C)[C@H](CC[C@@H]4[C@@]5(C)CC[C@H](OC(=O)COCC(=O)O)C(C)(C)[C@@H]5CC[C@]43C)[C@@H]12` [(1S,3aS,5aR,5bR,7aR,9S,11aR,11bR,13aR,13bR)-9-(2-Carboxymethoxy-acetoxy)-1-isopropyl-5a,5b,8,8,11a-pentamethyl-icosahydro-cyclopenta[a]chrysene-3a-carboxylic acid], the IC50 is reported as greater than 174 µM. Molecule `CC(C)[C@@H]1CC[C@]2(C(=O)O)CC[C@]3(C)[C@H](CC[C@@H]4[C@@]5(C)CC[C@H](OC(=O)CC(C)(C)CC(=O)O)C(C)(C)[C@@H]5CC[C@]43C)[C@@H]12` [3,3-Dimethyl-pentanedioic acid mono-((1S,3aS,5aR,5bR,7aR,9S,11aR,11bR,13aR,13bR)-3a-carboxy-1-isopropyl-5a,5b,8,8,11a-pentamethyl-icosahydro-cyclopenta[a]chrysen-9-yl) ester] has an IC50 greater than 167 µM. `C=C(C)[C@@H]1CC[C@]2(C(=O)O)CC[C@]3(C)[C@H](CC[C@@H]4[C@@]5(C)CC[C@H](O)C(C)(C)[C@@H]5CC[C@]43C)[C@@H]12` gave an IC50 greater than 219 µM. `C=C(C)[C@@H]1CC[C@]2(C(=O)O)CC[C@]3(C)[C@H](CC[C@@H]4[C@@]5(C)CC[C@H](OC(=O)COCC(=O)O)C(C)(C)[C@@H]5CC[C@]43C)[C@@H]12` [(1R,3aS,5aR,5bR,7aR,9S,11aR,11bR,13aR,13bR)-9-(2-Carboxymethoxy-acetoxy)-1-isopropenyl-5a,5b,8,8,11a-pentamethyl-icosahydro-cyclopenta[a]chrysene-3a-carboxylic acid] gave an IC50 greater than 175 µM.
